{
  "source": "patent US10287292B2",
  "about": "“CXCR7 antagonists” (CHEMOCENTRYX, INC., priority 2012, dated 2019)",
  "key": {"[1]": {"biological_target": "T1, CXCR7 receptor (Homo sapiens (Human), UniProt P25106)", "T1 sequence (P25106 whole entry)": "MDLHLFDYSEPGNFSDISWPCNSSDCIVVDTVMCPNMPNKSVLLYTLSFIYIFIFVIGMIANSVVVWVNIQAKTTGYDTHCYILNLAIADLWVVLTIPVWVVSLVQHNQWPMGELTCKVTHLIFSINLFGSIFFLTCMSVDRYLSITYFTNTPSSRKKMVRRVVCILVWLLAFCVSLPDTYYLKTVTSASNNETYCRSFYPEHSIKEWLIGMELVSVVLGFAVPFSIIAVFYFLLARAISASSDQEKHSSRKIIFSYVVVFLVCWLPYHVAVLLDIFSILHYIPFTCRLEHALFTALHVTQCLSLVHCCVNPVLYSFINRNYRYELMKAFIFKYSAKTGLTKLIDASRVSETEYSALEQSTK", "experiment": "Buffer Binding Analysis: displacement of 125I-labeled SDF-1 from CXCR7", "settings": "125I SDF-1 displacement, buffer binding medium, MCF-7 and/or MDA-MB-435S CXCR7 transfected cells, 3 hr at 4° C.; read-out: Avg Bind IC50", "protocol": "The compounds were combined with cells expressing the CXCR7 receptor (e.g., MCF cells or cells transfected to express CXCR7) in the presence of the 125 I-labeled SDF-1 chemokine as detailed in Determination of IC50 values. Reagents and Cells (see below). The ability of the compounds to displace the labeled chemokine from the CXCR7 receptor sites at multiple concentrations was then determined with the screening process.\nCompounds that were deemed effective modulators were able to displace at least 50% of the SDF-1 from the CXCR7 receptor at concentrations at or below 15 micromolar (μM) but >2500 nM (+); and more preferably at concentrations from >500 nM to ≤2500 nM (++). At present, especially preferred compounds can displace at least 50% of the SDF-1 from the CXCR7 receptor at concentrations at or below 500 nM (+++). Exemplary compounds that met these criteria are reproduced in Table 1 and the Examples above. In Table 1, Avg Bind IC50 refers to the Buffer Binding Analysis described below, while Avg Ser IC50 refers to the Serum Binding Analysis described below. All compounds were prepared as described in the Examples above, or by related methods substituting readily available starting materials.\n^125I-labeled SDF-1 was purchased from Perkin-Elmer Life Sciences, Inc. (Boston, Mass.). The MCF-7 (adenocarcinoma; mammary gland) cell line was obtained from the American Type Culture Collection (ATCC, Manassas, Va.) or and was cultured in DMEM (Mediatech, Herndon, Va.) supplemented with 10% fetal bovine serum (FBS) (HyClone Logan, Utah) and bovine insulin (0.01 mg/mL) (Sigma. St. Louis, Mo.) at 37° C. in a humidified incubator at a 5% CO2/air mixture. CXCR7 transfected MDA-MB-435S were produced as described below. MDA-MB-435S human breast cancer line, was purchased from ATCC, and cultured in DMEM/10% FBS medium. The complete coding sequence of the gene encoding CXCR7 (a.k.a. CCXCKR2, hRDC1), was isolated from MCF-7 cells using μMACs mRNA isolation kit (Miltenyi Biotec, Auburn, Calif.). DNA contamination was removed by DNase digestion via RNeasy columns (Qiagen, Inc., Valencia, Calif.) and cDNA was generated using GeneAmp RNA PCR Core Kit (Applied Biosystems, Foster City. Calif.). PCR of cDNA samples was performed using Taq PCR Master Mix kit (Qiagen. Inc.) and hRDC1 primers harboring 5′ and 3′ Not I sites (hRDC1F 5′ […]-3, hRDC1R 5′-[…]-3′) Not I digested PCR product was ligated into Not I digested pcDNA3.1(+)(Invitrogen, Carlsbad, Calif.) and screened for orientation and sequence confirmed. Plasmid DNA was then isolated from overnight bacterial cultures by Maxiprep (Qiagen, Inc.). Plasmid DNA (10 μg) was added to MDA-MB-435s cells and cells were electroporated (0.22 kV, 960 uF) via Gene Pulser (Biorad laboratories, Hercules, Calif.). 48 hr post-electroporation, cells were transferred to selection medium (600 ug/ml G418).\nTarget compounds can be tested to determine their ability to bind with CXCR7 sites on MCF-7 and/or MDA-MB-435S CXCR7 transfected cells. Efficiency-maxim/zed radioligand binding using filtration protocols as described in Dairaghi D J, et al., HHV8-encoded vMIP-I selectively engages chemokine receptor CCR5. Agonist and antagonist profiles of viral chemokines., J. Biol. Chem. 1999 Jul. 30; 274(31): 21569-74 and Gosling J. et al., Cutting edge: identification of a novel chemokine receptor that binds dendritic cell-and T cell-active chemokines including ELC. SLC, and TECK., J. Immunol. 2000 Mar. 15; 164(6):2851-6 was used.\nIn these assays, MCF-7 and/or MDA-MB-435S cells are interrogated with the target compounds and the ability of these compounds to displace ^125I radiolabeled SDF-1 assessed using the protocol described in Dairaghi and Gosling. […]"}, "[2]": {"biological_target": "T1, CXCR7 receptor", "experiment": "Serum Binding Analysis: displacement of 125I-labeled SDF-1 from CXCR7 in 100% human serum", "settings": "125I SDF-1 displacement in 100% human serum, MCF-7 and/or MDA-MB-435S CXCR7 transfected cells, 3 hrs at 4° C.; read-out: Avg Ser IC50", "summary_of_the_method": "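MCF-7 or CXCR7-transfected MDA-MB-435S cells incubated with compounds and 125I-SDF-1 in human AB serum plus 10 mM HEPES, pH 7.4, for 3 h at 4° C with gentle agitation. Bound radioligand separated by filtration; IC50 from displacement across multiple concentrations.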"}, "[3]": {"tested_on": "C6 cells", "experiment": "Rat C6 model of glioblastoma", "format": "in vivo", "settings": "C6 cells implanted into brains of Sprague-Dawley rats, tumors irradiated with 5-20 Gy after 7 days, then compound vs vehicle control", "protocol": "Many tumor models in animals are known in the art, and may be employed to evaluate a compound of instance. For instance, in a rat C6 model of glioblastoma, 1×10^6 C6 cells were implanted by stereotactic injection into the into the brains of Sprague-Dawley rats. After 7 days tumors were irradiated with between 5-20 Gy of radiation. Following irradiation rats were treated (eg via subcutaneous, intraperitoneal, oral, parenteral or other route) with compound or vehicle control and tumors are allowed to progress. Animals were followed until death or loss of >20% weight, or removed for tumor induced neurodeficits eg seizures and immobility in according with appropriate regulations and standards."}},
  "data": [
    {"smiles": "O=C(N[C@H]1CCN(c2nccn3ccnc23)C1)c1ncn(-c2ccc(F)cc2)n1", "note": "[Compound 1.090]", "values": [
      {"measurement": "IC50", "setting": "[1]", "value": "≤ 500", "unit": "nM"},
      {"measurement": "IC50", "setting": "[2]", "value": "≤ 500", "unit": "nM"},
      {"measurement": "antitumor activity (delay in tumor growth, Kaplan Meier analysis of survival)", "setting": "[3]", "value": "profound antitumor activity"}
    ]}
  ]
}
